# Experimental data reported in patent publication US9126941B2, “Treatment of hyperproliferative disorders with diarylhydantoin compounds” (The Regents of the University of California, priority 2005, dated 2015).
# Read-outs that look alike come from different tables or passages of the source.
# How the values were obtained:
# [1] = target: T1, AR (Homo sapiens, UniProt P10275); test: cell-based; type: cell-based; details: for Rank order, most active to least active, relative luciferase activity (FIG. 3): 500 nM; for IC50 (nM) Reporter: LNCaP-AR, 100 pM R1881, two days, No = did not inhibit AR response reporter
# Description: The compounds were subjected to tests using an artificial AR response reporter system in a hormone refractory prostate cancer cell line. […] After two days of incubation, reporter activities were assayed.
# [2] = target: T1, AR; test: cell-based; type: cell-based
# Description: It is well established that PSA levels are indicators of AR activities in prostate cancer. […] The LNCaP-AR cells are a line of lymph node carcinoma of prostate cells transduced with a plasmid that makes express androgen receptors. […] After four days incubation, secreted PSA levels were assayed using PSA ELISA kits (American Qualex, San Clemente, Calif.)
# T1 sequence (P10275 whole entry, looked up): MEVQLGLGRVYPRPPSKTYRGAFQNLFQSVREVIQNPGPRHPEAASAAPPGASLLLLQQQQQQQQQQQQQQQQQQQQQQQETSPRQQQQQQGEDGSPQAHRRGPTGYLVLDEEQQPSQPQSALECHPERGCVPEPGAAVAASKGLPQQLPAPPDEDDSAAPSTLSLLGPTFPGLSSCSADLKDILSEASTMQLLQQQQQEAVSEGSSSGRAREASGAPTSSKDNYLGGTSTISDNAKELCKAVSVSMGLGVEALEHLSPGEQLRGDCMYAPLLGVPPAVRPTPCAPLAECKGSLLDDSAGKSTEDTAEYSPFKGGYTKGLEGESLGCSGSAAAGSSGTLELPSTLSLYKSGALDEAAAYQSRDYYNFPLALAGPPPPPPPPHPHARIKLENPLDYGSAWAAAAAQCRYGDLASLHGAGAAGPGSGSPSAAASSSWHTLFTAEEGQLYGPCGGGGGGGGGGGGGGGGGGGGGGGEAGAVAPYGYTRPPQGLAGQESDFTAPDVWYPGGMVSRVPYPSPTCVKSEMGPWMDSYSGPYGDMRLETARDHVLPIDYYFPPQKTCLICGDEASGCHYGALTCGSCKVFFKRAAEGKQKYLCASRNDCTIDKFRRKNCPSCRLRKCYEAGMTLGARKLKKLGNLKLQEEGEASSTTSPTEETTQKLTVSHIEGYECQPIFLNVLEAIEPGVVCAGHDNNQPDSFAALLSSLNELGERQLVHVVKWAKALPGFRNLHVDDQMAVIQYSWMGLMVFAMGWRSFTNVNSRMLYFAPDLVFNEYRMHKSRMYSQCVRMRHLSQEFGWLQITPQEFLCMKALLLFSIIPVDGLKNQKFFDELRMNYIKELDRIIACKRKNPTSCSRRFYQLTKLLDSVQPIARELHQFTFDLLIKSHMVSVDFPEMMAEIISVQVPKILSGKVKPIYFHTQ
compound,measurement,setting,value
"Cc1cc(N2C(=S)N(c3ccc(C#N)c(C(F)(F)F)c3)C(=O)C23CCC3)[nH]n1 [RD84, 4-[5-(5-methyl-2H-pyrazol-3-yl)-8-oxo-6-thioxo-5,7-diaza-spiro[3.4]oct-7-yl]-2-trifluoromethyl-benzonitrile, reference compound]",IC50,[1],> 1000 nM
"Cc1ccnc(N2C(=S)N(c3ccc(C#N)c(C(F)(F)F)c3)C(=O)C2(C)C)c1 [RD83, 4-[4,4-dimethyl-3-(4-methylpyridin-2-yl)-5-oxo-2-thioxoimidazolidin-1-yl]-2-trifluoromethylbenzonitrile]",IC50,[1],457 nM
"COC(=O)CCCc1ccc(N2C(=S)N(c3ccc(C#N)c(C(F)(F)F)c3)C(=O)C23CCC3)cc1 [RD129, 4-{4-[7-(4-cyano-3-trifluoromethylphenyl)-8-oxo-6-thioxo-5,7-diazaspiro[3.4]oct-5-yl]-phenyl}-butyric acid methyl ester]",IC50,[1],432 nM
"CC1(C)C(=O)N(c2ccc(C#N)c(C(F)(F)F)c2)C(=S)N1c1ccccn1 [RD82, 4-[4,4-dimethyl-3-(4-pyridin-2-yl)-5-oxo-2-thioxoimidazolidin-1-yl]-2-trifluoromethylbenzonitrile]",IC50,[1],723 nM
"N#Cc1ccc(N2C(=O)C3(CCCC3)N(c3ccc([N+](=O)[O-])cc3)C2=S)cc1C(F)(F)F [RD55, 4-[1-(4-nitrophenyl)-4-oxo-2-thioxo-1,3-diazaspiro[4.4]non-3-yl]-2-trifluoromethylbenzonitrile]",IC50,[1],498 nM
"N#Cc1ccc(N2C(=O)C3(CCC3)N(c3ccc(O)cc3F)C2=S)cc1C(F)(F)F [RD163, 4-[5-(2-fluoro-4-hydroxyphenyl)-8-oxo-6-thioxo-5,7-diazaspiro[3.4]oct-7-yl]-2-trifluoromethylbenzonitrile]",Luciferase activity in LNCaP-AR cells (FIG. 3),[1],acted to reduce luciferase activity
same,"Rank order, most active to least active, relative luciferase activity (FIG. 3)",[1],RD152>RD153>RD145>RD163>RD161=RD162>bicalutamide
"COC(=O)c1ccc(N2C(=S)N(c3ccc(C#N)c(C(F)(F)F)c3)C(=O)C2(C)C)cc1 [RD152, 4-[3-(4-cyano-3-trifluoromethylphenyl)-5,5-dimethyl-4-oxo-2-thioxo-imidazolidin-1-yl]benzoic acid methyl ester]",Luciferase activity in LNCaP-AR cells (FIG. 3),[1],acted to reduce luciferase activity
same,"Rank order, most active to least active, relative luciferase activity (FIG. 3)",[1],RD152>RD153>RD145>RD163>RD161=RD162>bicalutamide
"N#CCCCc1ccc(N2C(=S)N(c3ccc(C#N)c(C(F)(F)F)c3)C(=O)C23CCC3)cc1 [RD170, 4-(5-(4-(3-Cyanopropyl)phenyl)-8-oxo-6-thioxo-5,7-diazaspiro[3.4]octan-7-yl)-2-(trifluoromethyl)benzonitrile]",PSA levels of LN-AR cells (FIG. 21),"[2]; doses of 100, 200, 500 and 1000 nM",decreased
"CC1(C)C(=O)N(c2ccc(C#N)c(C(F)(F)F)c2)C(=S)N1c1ccccc1 [Example 6-2, 4-[3-phenyl-4,4-dimethyl-5-oxo-2-thioxoimidazolidin-1-yl]-2-trifluoromethylbenzonitrile]",IC50,[1],149 nM
"CN1CCC2(CC1)NC(=S)N(c1ccc(C#N)c(C(F)(F)F)c1)C2=O [RD52, 4-(8-methyl-4-oxo-2-thioxo-1,3,8-triazaspiro[4.5]dec-3-yl)-2-trifluoromethylbenzonitrile, reference compound]",IC50 (nM) Reporter,[1],No
"CC1(C)C(=O)N(c2ccc(C#N)c(C(F)(F)F)c2)C(=S)N1c1ccc(N)cc1 [RD9, 4-[3-(4-aminophenyl)-4,4-dimethyl-5-oxo-2-thioxoimidazolidin-1-yl]-2-trifluoromethylbenzonitrile]",IC50,[1],273 nM
"N#Cc1ccc(N2C(=O)C3(CCC3)N(c3ccc(/C=C/CO)cc3)C2=S)cc1C(F)(F)F [RD120, 4-{5-[4-(3-hydroxypropenyl)-phenyl]-8-oxo-6-thioxo-5,7-diazaspiro[3.4]oct-7-yl}-2-trifluoromethylbenzonitrile]",IC50,[2],114 nM
"N#Cc1ccc(N2C(=O)C3(CCC3)N(c3ccc(O)cc3)C2=S)cc1C(F)(F)F [RD58, 4-(8-oxo-6-thioxo-5-(4-hydroxyphenyl)-5,7-diazaspiro[3.4]oct-7-yl)-2-trifluoromethylbenzonitrile]",IC50,[1],162 nM
"CNC(=O)c1ccc(N2C(=S)N(c3ccc(C#N)c(C(F)(F)F)c3)C(=O)C2(C)C)cc1 [RD153, 4-[3-(4-cyano-3-trifluoromethylphenyl)-5,5-dimethyl-4-oxo-2-thioxo-imidazolidin-1-yl]-N-methylbenzamide]",Luciferase activity in LNCaP-AR cells (FIG. 3),[1],acted to reduce luciferase activity
same,"Rank order, most active to least active, relative luciferase activity (FIG. 3)",[1],RD152>RD153>RD145>RD163>RD161=RD162>bicalutamide
same,"Luciferase activity, LN/AR cell line (FIG. 29)","[1]; for a given concentration, 125 nmol to 1000 nmol",less than the luciferase activity upon exposure to RD155
"CC(O)c1ccc(N2C(=S)N(c3ccc(C#N)c(C(F)(F)F)c3)C(=O)C23CCC3)cc1 (stereo not shown) [RD116, 4-{5-[4-(1-hydroxyethyl)-phenyl]-8-oxo-6-thioxo-5,7-diazaspiro[3.4]oct-7-yl}-2-trifluoromethyl-benzonitrile]",IC50,[2],187 nM
"N#Cc1ccc(N2C(=O)C3(CCC3)N(c3ccc(C=O)cc3)C2=S)cc1C(F)(F)F [RD114, 4-[5-(4-formylphenyl)-8-oxo-6-thioxo-5,7-diazaspiro[3.4]oct-7-yl]-2-trifluoromethyl-benzonitrile]",IC50,[2],263 nM
"Cc1ccc(N2C(=S)N(c3ccc(C#N)c(C(F)(F)F)c3)C(=O)C23CCCC3)cc1 [RD35, 4-(4-oxo-2-thioxo-1-(4-methylphenyl)-1,3-diazaspiro[4.4]non-3-yl)-2-trifluoromethylbenzonitrile]",IC50,[1],147 nM
"COC(=O)CCc1ccc(N2C(=S)N(c3ccc(C#N)c(C(F)(F)F)c3)C(=O)C23CCC3)cc1 [RD128, 3-{4-[7-(4-cyano-3-trifluoromethylphenyl)-8-oxo-6-thioxo-5,7-diazaspiro[3.4]oct-5-yl]-phenyl}-propionic acid methyl ester]",IC50 (nM) Reporter,[1],No
"CC1(C)C(=O)N(c2ccc(C#N)c(C(F)(F)F)c2)C(=S)N1c1ccc(OC(=O)CCl)cc1 [RD13, Chloroacetic acid 4-[3-(4-cyano-3-trifluoromethylphenyl)-5,5-dimethyl-4-oxo-2-thioxoimidazolidin-1-yl]phenyl ester]",IC50,[1],131 nM
"Cc1ccc(N2C(=S)N(c3ccc(C#N)c(C(F)(F)F)c3)C(=O)C23CCN(C)CC3)cc1 [RD53, 4-(8-methyl-4-oxo-2-thioxo-1-(4-methylphenyl)-1,3,8-triazaspiro[4.5]dec-3-yl)-2-trifluoromethylbenzonitrile]",IC50,[1],638 nM
"CS(=O)(=O)c1ccc(N2C(=S)N(c3ccc(C#N)c(C(F)(F)F)c3)C(=O)C23CCC3)cc1 [RD145, 4-[5-(4-methanesulfonylphenyl)-8-oxo-6-thioxo-5,7-diazaspiro[3.4]oct-7-yl]-2-trifluoromethylbenzonitrile]",Luciferase activity in LNCaP-AR cells (FIG. 3),[1],acted to reduce luciferase activity
same,"Rank order, most active to least active, relative luciferase activity (FIG. 3)",[1],RD152>RD153>RD145>RD163>RD161=RD162>bicalutamide
"N#Cc1ccc(N2C(=O)C3(CCC3)N(c3ccc(-c4ccccc4)cc3)C2=S)cc1C(F)(F)F [RD57, 4-(8-oxo-6-thioxo-5-(4-biphenyl)-5,7-diazaspiro[3.4]oct-7-yl)-2-trifluoromethylbenzonitrile]",IC50,[1],283 nM
"Cc1ccc(N2C(=S)N(c3ccc(C#N)c(C(F)(F)F)c3)C(=O)C23CCCCC3)cc1 [RD48, 4-(4-oxo-2-thioxo-1-(4-methylphenyl)-1,3-diazaspiro[4.5]dec-3-yl)-2-trifluoromethylbenzonitrile]",IC50,[1],194 nM
